Results published in patent US20230312601A1, “THIAZOLO[5,4-B]PYRIDINE MALT-1 INHIBITORS” (AbbVie Inc., priority 2022, published 2023).

Legend:
OCI-LY3 IL6 = assay: MALT-1 Cell IL-6 AlphaLISA Assay; format: cell-based; conditions: Homo sapiens; OCI-LY3 cells, 48 hours incubation; read-out: OCI-LY3 IL6 48 hour Inhibition EC50
Method in brief: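 MALT-1-dependent ABC-DLBCL OCI-LY3 cells were seeded at 50,000 cells/mL onto compound (30 μM to 1.5 nM) and incubated 48 hours at 37° C. Secreted human IL-6 in the medium was measured by AlphaLISA with acceptor beads, biotinylated anti-IL-6 antibody and streptavidin donor beads.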

CYP3A4 mRNA = assay: CYP3A4 Induction Assay (qPCR, human hepatocytes); format: in vitro ADME; conditions: cryopreserved human hepatocytes (plated), 10 μM compound, mRNA fold over vehicle (0.1% DMSO)
Method in brief: (§1)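 Cryopreserved human hepatocytes (60,000 cells/well), overlaid with Geltrex, were dosed at 10 μM final, with omeprazole, rifampicin and probenecid as controls. RNA was isolated on day 3. CYP3A4 mRNA was measured by TaqMan RT-qPCR with GAPDH as the reference gene.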

CYP 3A4 mRNA = assay: CYP3A4 Induction Assay (qPCR, human hepatocytes); format: in vitro ADME; conditions: 10 μM compound, relative to rifampicin 10 μM
Method in brief: as §1

human MALT-1 protein = human MALT-1 protein (Homo sapiens (Human), UniProt Q9UDY8); assay: MALT-1 Biochemical Assay (Quench-FRET enzyme assay); conditions: human MALT-1 6 nM, substrate 2 μM, 40 min preincubation
Chain of human MALT-1 protein (Q9UDY8 whole entry): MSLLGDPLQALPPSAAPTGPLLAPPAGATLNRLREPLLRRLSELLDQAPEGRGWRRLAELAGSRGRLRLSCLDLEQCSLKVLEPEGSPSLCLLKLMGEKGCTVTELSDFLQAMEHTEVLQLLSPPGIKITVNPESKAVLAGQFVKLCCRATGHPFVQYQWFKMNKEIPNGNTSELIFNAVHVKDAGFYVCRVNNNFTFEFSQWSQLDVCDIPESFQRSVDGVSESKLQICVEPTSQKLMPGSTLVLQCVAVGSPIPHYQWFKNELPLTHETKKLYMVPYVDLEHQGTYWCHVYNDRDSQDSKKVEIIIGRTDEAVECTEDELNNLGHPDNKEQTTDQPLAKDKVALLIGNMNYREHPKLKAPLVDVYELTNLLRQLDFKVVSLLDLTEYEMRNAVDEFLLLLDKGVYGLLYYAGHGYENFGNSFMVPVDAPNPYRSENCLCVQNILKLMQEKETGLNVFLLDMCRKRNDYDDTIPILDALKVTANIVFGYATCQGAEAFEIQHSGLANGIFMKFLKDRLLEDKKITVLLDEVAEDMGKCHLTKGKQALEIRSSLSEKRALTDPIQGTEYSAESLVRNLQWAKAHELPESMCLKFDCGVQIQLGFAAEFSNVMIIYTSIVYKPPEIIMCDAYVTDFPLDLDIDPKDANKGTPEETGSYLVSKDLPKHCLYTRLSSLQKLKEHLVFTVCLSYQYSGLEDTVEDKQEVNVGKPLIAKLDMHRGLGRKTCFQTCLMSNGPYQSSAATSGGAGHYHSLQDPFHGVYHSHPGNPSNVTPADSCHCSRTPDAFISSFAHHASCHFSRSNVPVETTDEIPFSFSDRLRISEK
Method in brief: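 Human MALT-1 (6 nM) preincubated 40 min at room temperature with compound in pH 7.5 HEPES buffer containing 0.8 M sodium citrate and 2 mM DTT. Then 2 μM quenched TAMRA/QSY7 peptide substrate added for 60 min. Cleavage read by fluorescence (Ex 535/Em 590); EC50 is half-maximal inhibition of protease activity.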

male Sprague-Dawley rats = assay: Cardiovascular Assay in anesthetized rats; format: in vivo; conditions: rat; for HR (%) / MAP (%) / dP/dt@50 (%): change from vehicle; for Drug (μg/mL SEM): plasma at end of infusion
Procedure: The following cardiovascular assay was conducted using male Sprague-Dawley rats that were anesthetized with Inactin (thiobutabarbital), instrumented (catheterized both femoral artery and vein; catheterize left ventricular) and allowed to stabilize. Following a 30-minute baseline period, each compound was infused at low, medium, and high doses/30 minutes. Plasma samples were taken at the end of each dose infusion. If, at any point, the mean arterial pressure (MAP) of an animal decreased below 70 mmHg, the infusion was immediately stopped, a final blood sample was taken, and hemodynamic data for that animal was removed from the group average for all subsequent time points. A 15% change from vehicle for MAP or heart rate (HR), respectively, is considered biologically relevant. A 20% change from vehicle for dP/dt@50 is considered biologically relevant.

CO[C@@H](C)c1c(Nc2ccc([C@H](N(C)C(=O)C3CCS(=O)(=O)CC3)C(F)(F)F)cc2)cnc2sc(C)nc12 [Example 1, N-methyl-1,1-dioxo-N-{(1S)-2,2,2-trifluoro-1-[4-({7-[(1S)-1-methoxyethyl]-2-methyl[1,3]thiazolo[5,4-b]pyridin-6-yl}amino)phenyl]ethyl}-1λ^6-thiane-4-carboxamide]
EC50 (OCI-LY3 IL6): 200 nM | fold induction at 1 day, 10 µM (CYP3A4 mRNA): 1.45 | CYP3A4 % of positive control (%) (CYP 3A4 mRNA): (5.46) % | EC50 (human MALT-1 protein): 91 nM | HR (%) (male Sprague-Dawley rats; dose 3 mg/kg): −4% | MAP (%) (male Sprague-Dawley rats; dose 3 mg/kg): −5% | dP/dt@50 (%) (male Sprague-Dawley rats; dose 3 mg/kg): 5% | HR (%) (male Sprague-Dawley rats; dose 10 mg/kg): −8% | MAP (%) (male Sprague-Dawley rats; dose 10 mg/kg): −8% | dP/dt@50 (%) (male Sprague-Dawley rats; dose 10 mg/kg): 12% | HR (%) (male Sprague-Dawley rats; dose 30 mg/kg): −17% | MAP (%) (male Sprague-Dawley rats; dose 30 mg/kg): −16% | dP/dt@50 (%) (male Sprague-Dawley rats; dose 30 mg/kg): 11% | Drug (μg/mL SEM) (male Sprague-Dawley rats; dose 3 mg/kg): 2.32 ± 0.12 µg/mL | Drug (μg/mL SEM) (male Sprague-Dawley rats; dose 10 mg/kg): 9.36 ± 0.41 µg/mL | Drug (μg/mL SEM) (male Sprague-Dawley rats; dose 30 mg/kg): 24.00 ± 1.63 µg/mL

CO[C@H](c1c(Nc2ccc([C@H](N(C)C(=O)C3CCS(=O)(=O)CC3)C(F)(F)F)cc2)cnc2sc(C)nc12)C(F)F [Example 3, N-{(1S)-1-[4-({7-[(1R)-2,2-difluoro-l-methoxyethyl]-2-methyl[1,3]thiazolo[5,4-b]pyridin-6-yl}amino)phenyl]-2,2,2-trifluoroethyl} -N-methyl-1,1-dioxo-1λ^6-thiane-4-carboxamide]
EC50 (OCI-LY3 IL6): 140 nM | fold induction at 1 day, 10 µM (CYP3A4 mRNA): 1.12 | CYP3A4 % of positive control (%) (CYP 3A4 mRNA): (1.75) % | EC50 (human MALT-1 protein): 110 nM | HR (%) (male Sprague-Dawley rats; dose 3 mg/kg): −1% | MAP (%) (male Sprague-Dawley rats; dose 3 mg/kg): 1% | dP/dt@50 (%) (male Sprague-Dawley rats; dose 3 mg/kg): 0% | HR (%) (male Sprague-Dawley rats; dose 10 mg/kg): −3% | MAP (%) (male Sprague-Dawley rats; dose 10 mg/kg): 0% | dP/dt@50 (%) (male Sprague-Dawley rats; dose 10 mg/kg): 3% | HR (%) (male Sprague-Dawley rats; dose 30 mg/kg): −12% | MAP (%) (male Sprague-Dawley rats; dose 30 mg/kg): −13% | dP/dt@50 (%) (male Sprague-Dawley rats; dose 30 mg/kg): −3% | Drug (μg/mL SEM) (male Sprague-Dawley rats; dose 3 mg/kg): 2.18 ± 0.10 µg/mL | Drug (μg/mL SEM) (male Sprague-Dawley rats; dose 10 mg/kg): 8.34 ± 0.55 µg/mL | Drug (μg/mL SEM) (male Sprague-Dawley rats; dose 30 mg/kg): 22.87 ± 2.67 µg/mL

CO[C@@H](C)c1c(Nc2ccc([C@H](N(C)C(=O)C3CCN(C(C)=O)CC3)C(F)(F)F)cc2)cnc2sc(C)nc12 [Example 19, 1-acetyl-N-methyl-N-{(1S)-2,2,2-trifluoro-1-[4-({7-[(1S)-1-methoxyethyl]-2-methyl[1,3]thiazolo [5,4-b]pyridin-6-yl}amino)phenyl]ethyl}piperidine-4-carboxamide]
EC50 (OCI-LY3 IL6): 950 nM | fold induction at 1 day, 10 µM (CYP3A4 mRNA): 0.985 | CYP3A4 % of positive control (%) (CYP 3A4 mRNA): (−0.162) % | EC50 (human MALT-1 protein): 198 nM | HR (%) (male Sprague-Dawley rats; dose 3 mg/kg): −5% | MAP (%) (male Sprague-Dawley rats; dose 3 mg/kg): 0% | dP/dt@50 (%) (male Sprague-Dawley rats; dose 3 mg/kg): −5% | HR (%) (male Sprague-Dawley rats; dose 10 mg/kg): −5% | MAP (%) (male Sprague-Dawley rats; dose 10 mg/kg): −1% | dP/dt@50 (%) (male Sprague-Dawley rats; dose 10 mg/kg): −5% | HR (%) (male Sprague-Dawley rats; dose 30 mg/kg): −9% | MAP (%) (male Sprague-Dawley rats; dose 30 mg/kg): −2% | dP/dt@50 (%) (male Sprague-Dawley rats; dose 30 mg/kg): −3% | Drug (μg/mL SEM) (male Sprague-Dawley rats; dose 3 mg/kg): 2.51 ± 0.29 µg/mL | Drug (μg/mL SEM) (male Sprague-Dawley rats; dose 10 mg/kg): 8.92 ± 0.73 µg/mL | Drug (μg/mL SEM) (male Sprague-Dawley rats; dose 30 mg/kg): 25.13 ± 0.98 µg/mL

CO[C@H](c1c(Nc2ccc([C@@H](C(F)F)N(C)C(=O)C3CCN(C(=O)CO)CC3)cc2)cnc2sc(C)nc12)C(F)F [Example 31, N-{(1S)-1-[4-({7-[(1R)-2,2-difluoro-1-methoxyethyl]-2-methyl[1,3]thiazolo[5,4-b]pyridin-6-yl}amino)phenyl]-2,2-difluoroethyl}-1-(hydroxyacetyl)-N-methylpiperidine-4-carboxamide]
EC50 (OCI-LY3 IL6): 440 nM | fold induction at 1 day, 10 µM (CYP3A4 mRNA): 1.37 | CYP3A4 % of positive control (%) (CYP 3A4 mRNA): (4.87) % | EC50 (human MALT-1 protein): 82 nM

CO[C@@H](c1c(Nc2ccc([C@H](N(C)C(=O)C3CCN(C(=O)CO)CC3)C(F)(F)F)cc2)cnc2sc(C)nc12)C(F)F [Example 32, N-{(1S)-1-[4({7-[(1S)-2,2-difluoro-1-methoxyethyl]-2-methyl[1,3]thiazolo [5,4-b]pyridin-6-yl}amino)phenyl]-2,2,2-trifluoroethyl}-1-(hydroxyacetyl)-N-methylpiperidine-4-carboxamide]
EC50 (OCI-LY3 IL6): 250 nM | fold induction at 1 day, 10 µM (CYP3A4 mRNA): 1.2 | CYP3A4 % of positive control (%) (CYP 3A4 mRNA): (2.56) % | EC50 (human MALT-1 protein): 113 nM

CO[C@@H](c1c(Nc2ccc([C@H](N(C)C(=O)C3CCN(C(C)=O)CC3)C(F)(F)F)cc2)cnc2sc(C)nc12)C(F)F [Example 33, 1-acetyl-N-{(1S)-1-[4-({7-[(1S)-2,2-difluoro-1-methoxyethyl]-2-methyl[1,3]thiazolo [5,4-b]pyridin-6-yl}amino)phenyl]-2,2,2-trifluoroethyl}-N-methylpiperidine-4-carboxamide]
EC50 (OCI-LY3 IL6): 180 nM | fold induction at 1 day, 10 µM (CYP3A4 mRNA): 2.72 | CYP3A4 % of positive control (%) (CYP 3A4 mRNA): (20.2) % | EC50 (human MALT-1 protein): 162 nM | HR (%) (male Sprague-Dawley rats; dose 3 mg/kg): −5% | MAP (%) (male Sprague-Dawley rats; dose 3 mg/kg): −5% | dP/dt@50 (%) (male Sprague-Dawley rats; dose 3 mg/kg): 1% | HR (%) (male Sprague-Dawley rats; dose 10 mg/kg): −7% | MAP (%) (male Sprague-Dawley rats; dose 10 mg/kg): −5% | dP/dt@50 (%) (male Sprague-Dawley rats; dose 10 mg/kg): 1% | HR (%) (male Sprague-Dawley rats; dose 30 mg/kg): −8% | MAP (%) (male Sprague-Dawley rats; dose 30 mg/kg): −9% | dP/dt@50 (%) (male Sprague-Dawley rats; dose 30 mg/kg): 7% | Drug (μg/mL SEM) (male Sprague-Dawley rats; dose 3 mg/kg): 2.52 ± 0.39 µg/mL | Drug (μg/mL SEM) (male Sprague-Dawley rats; dose 10 mg/kg): 11.20 ± 0.60 µg/mL | Drug (μg/mL SEM) (male Sprague-Dawley rats; dose 30 mg/kg): 34.10 ± 1.95 µg/mL

CO[C@H](C)c1c(Nc2ccc([C@H](N(C)C(=O)C3CCN(C(=O)CO)CC3)C(F)(F)F)cc2)cnc2sc(C)nc12 [Example 34, 1-(hydroxyacetyl)-N-methyl-N-1{(1S)-2,2,2-trifluoro-1-[4-({7-[(1R)-1-methoxyethyl]-2-methyl[1,3]thiazolo[5,4-b]pyridin-6-yl}amino)phenyl]ethyl}piperidine-4-carboxamide]
EC50 (OCI-LY3 IL6): 190 nM | fold induction at 1 day, 10 µM (CYP3A4 mRNA): 2.11 | CYP3A4 % of positive control (%) (CYP 3A4 mRNA): (13) % | EC50 (human MALT-1 protein): 112 nM

CO[C@H](C)c1c(Nc2ccc([C@H](N(C)C(=O)C3CCN(C(C)=O)CC3)C(F)(F)F)cc2)cnc2sc(C)nc12 [Example 35, 1-acetyl-N-methyl-N-{(1S)-2,2,2-trifluoro-1-[4-({7-[(1R)-1-methoxyethyl]-2-methyl[1,3]thiazolo [5,4-b]pyridin-6-yl}amino)phenyl]ethyl}piperidine-4-carboxamide]
EC50 (OCI-LY3 IL6): 7300 nM | fold induction at 1 day, 10 µM (CYP3A4 mRNA): 2.45 | CYP3A4 % of positive control (%) (CYP 3A4 mRNA): (17) % | EC50 (human MALT-1 protein): 500 nM

CO[C@H](c1c(Nc2ccc([C@@H](C(F)F)N(C)C(=O)C3CCN(C(=O)CO)CC3)cc2)cnc2sc(C)nc12)C(F)(F)F [Example 36, N-{(1S)-2,2-difluoro-1-[4-({2-methyl-7-[(1R)-2,2,2-trifluoro-1-methoxyethyl][1,3]thiazolo [5,4-b]pyridin-6-yl}amino)phenyl]ethyl}-1-(hydroxyacetyl)-N-methylpiperidine-4-carboxamide]
EC50 (OCI-LY3 IL6): 270 nM | fold induction at 1 day, 10 µM (CYP3A4 mRNA): 1.9 | CYP3A4 % of positive control (%) (CYP 3A4 mRNA): (14.4) % | EC50 (human MALT-1 protein): 48 nM

CO[C@H](c1c(Nc2ccc([C@@H](C(F)F)N(C)C(=O)C3CCN(C(C)=O)CC3)cc2)cnc2sc(C)nc12)C(F)(F)F [Example 37, 1-acetyl-N-{(1S)-2,2-difluoro-1-[4-({2-methyl-7-[(1R)-2,2,2-trifluoro-1-methoxyethyl][1,3]thiazolo[5,4-b]pyridin-6-yl}amino)phenyl]ethyl}-N-methylpiperidine-4-carboxamide]
EC50 (OCI-LY3 IL6): 210 nM | fold induction at 1 day, 10 µM (CYP3A4 mRNA): 2.19 | CYP3A4 % of positive control (%) (CYP 3A4 mRNA): (19) % | EC50 (human MALT-1 protein): 60 nM
